Laboratory results: PubChem BioAssay AID200 (DTP/NCI, 2004)
“And” between values parts separate entries of the source, which are not always exact repeats. Identical values can stand only once. Inconclusive results and toxic doses are left out.

System: B6C3F1 mice, B16 melanoma ip, median survival T/C
Assay: NCI In Vivo Anticancer Drug Screen. Data for tumor model B16 Melanoma (intraperitoneal) in B6C3F1 mice
Conditions: endpoint: median survival time, schedule: Q01DX009 (ip), higher = longer survival
How it was run: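 Tumor-bearing mice received test compound; a separate group got vehicle only. Survival was then compared, with results reported as treated over control.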

[1] = dose: 6.25 mg/kg/injection, vehicle: saline with Tween-80
[2] = dose: 25.0 mg/kg/injection, vehicle: saline with Tween-80
[3] = dose: 50.0 mg/kg/injection, vehicle: saline with Tween-80
[4] = dose: 100.0 mg/kg/injection, vehicle: saline with Tween-80
[5] = dose: 25.0 mg/kg/injection, vehicle: saline
[6] = dose: 50.0 mg/kg/injection, vehicle: saline
[7] = dose: 200.0 mg/kg/injection, vehicle: saline

With `O=C(Nc1cccc2c(OC(=O)C(Cl)Cl)c(N=Nc3ccc(S(=O)(=O)Nc4nccs4)cc3)cc(N=Nc3ccc(S(=O)(=O)Nc4nccs4)cc3)c12)C(Cl)Cl` (tested in a mixture with another compound) the T/C (dose: 3.12 mg/kg/injection, vehicle: saline with Tween-80) was 104 % of control, the T/C (dose: 3.13 mg/kg/injection, vehicle: saline with Tween-80) was 94 % of control and the T/C [1] was 115 % of control and 119 % of control and 87 % of control. The T/C (dose: 12.5 mg/kg/injection, vehicle: saline with Tween-80) was 114 % of control and 100 % of control and 104 % of control, the T/C [2] was 109 % of control and the T/C [3] was 108 % of control. The T/C [4] was 95 % of control.

With `C=C(NC(=O)C(=C)NC(=O)c1csc(C2=NC3c4csc(n4)C4NC(=O)c5csc(n5)C(C(C)(O)C(C)O)NC(=O)C5CSC(=N5)/C(=C/C)NC(=O)C(C(C)O)NC(=O)c5csc(n5)C3(CC2)NC(=O)C(C)NC(=O)C(=C)NC(=O)C(=C)NC(=O)C(C(C)C)NC2C=Cc3c(C(C)O)cc(nc3C2O)C(=O)OC4C)n1)C(N)=O` (centres undefined) the T/C [5] was 121 % of control, the T/C [6] was 109 % of control and the T/C [7] was 121 % of control.

`N#Cc1ccc(NN=O)nc1` was tested, and the T/C (dose: 3.12 mg/kg/injection, vehicle: water) was 102 % of control, the T/C (dose: 3.13 mg/kg/injection, vehicle: water) was 119 % of control and the T/C (dose: 4.5 mg/kg/injection, vehicle: saline) was 117 % of control. The T/C (dose: 6.25 mg/kg/injection, vehicle: water) was 113 % of control and 122 % of control, the T/C (dose: 7.5 mg/kg/injection, vehicle: saline) was 108 % of control and the T/C (dose: 20.83 mg/kg/injection, vehicle: saline) was 123 % of control. For the same compound, the T/C (dose: 34.72 mg/kg/injection, vehicle: saline) was 120 % of control.

`NC(C(=O)O)c1ccc(CBr)cc1` (centres undefined) was tested, and the T/C (dose: 6.0 mg/kg/injection, vehicle: saline with Tween-80) was 114 % of control, the T/C [1] was 111 % of control and the T/C [2] was 159 % of control. The T/C [3] was 155 % of control and 165 % of control and the T/C [4] was 150 % of control and 183 % of control.

With `CC1([CH2][Hg][I])COCC([CH2][Hg][I])O1` (centres undefined) the T/C (dose: 5.0 mg/kg/injection, vehicle: Klucel (hydroxypropylcellulose) (HPC)) was 100 % of control, the T/C (dose: 10.0 mg/kg/injection, vehicle: Klucel (hydroxypropylcellulose) (HPC)) was 102 % of control and the T/C (dose: 20.0 mg/kg/injection, vehicle: Klucel (hydroxypropylcellulose) (HPC)) was 86 % of control.

`NC(Cn1ccc(=O)c(O)c1)C(=O)O` (centres undefined) was tested, and the T/C (dose: 12.5 mg/kg/injection, vehicle: saline) was 107 % of control, the T/C [5] was 111 % of control and the T/C [6] was 101 % of control. The T/C (dose: 100.0 mg/kg/injection, vehicle: saline) was 105 % of control and the T/C [7] was 105 % of control.

`COC1=C(C)C(=O)C2=C(C1=O)C(CO)N1C(C#N)C3CC4C(C1C2N1CCOC41)N3C` (centres undefined) was tested, and the T/C (dose: 0.06 mg/kg/injection, vehicle: acid diluted with saline) was 105 % of control, the T/C (dose: 0.12 mg/kg/injection, vehicle: acid diluted with saline) was 98 % of control and the T/C (dose: 0.12 mg/kg/injection, vehicle: saline + alcohol) was 102 % of control. For the same compound, the T/C (dose: 0.25 mg/kg/injection, vehicle: acid diluted with saline) was 111 % of control, the T/C (dose: 0.25 mg/kg/injection, vehicle: saline + alcohol) was 109 % of control and 104 % of control and the T/C (dose: 0.5 mg/kg/injection, vehicle: acid diluted with saline) was 116 % of control and 103 % of control. For the same compound, the T/C (dose: 0.5 mg/kg/injection, vehicle: saline + alcohol) was 112 % of control and 113 % of control and 118 % of control, the T/C (dose: 1.0 mg/kg/injection, vehicle: acid diluted with saline) was 108 % of control and 113 % of control and the T/C (dose: 1.0 mg/kg/injection, vehicle: saline + alcohol) was 109 % of control and 121 % of control.
